Assay results as given in PubChem BioAssay AID2060333 (Molecular Pharmacology Branch, DTP, NCI, 2025).
pIC50: −log10 of the molar value.

Test system: 845751-090-R-J2-PDC tumor spheroid viability
Assay: Anticancer human tumor 845751-090-R-J2-PDC patient-derived head and neck squamous carcinoma cell line growth inhibition [IpAb]
Details: spheroids with HUVEC and MSC; for pIC50: curve of first compound; for viability, T/C: stronger effect = lower value
Procedure, shortened: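 Multi-cell spheroids of 60% tumour cells, 25% HUVEC and 15% MSC in ultra-low-attachment U-bottom wells, treated with agents combined with ipatasertib or abemaciclib. Half-log ranges top out near clinical Cmax, or 10 microM when Cmax is unknown.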

[1] = second compound 0.01 µM, first compound 0.0316 µM
[2] = second compound 0.01 µM, first compound 0.1 µM
[3] = second compound 0.01 µM, first compound 0.316 µM
[4] = second compound 0.01 µM, first compound 1 µM
[5] = second compound 0.01 µM, first compound 3.16 µM
[6] = second compound 0.01 µM, first compound 10 µM
[7] = second compound 0.0316 µM, first compound 0.0316 µM
[8] = second compound 0.0316 µM, first compound 0.1 µM
[9] = second compound 0.0316 µM, first compound 0.316 µM
[10] = second compound 0.0316 µM, first compound 1 µM
[11] = second compound 0.0316 µM, first compound 3.16 µM
[12] = second compound 0.0316 µM, first compound 10 µM
[13] = second compound 0.1 µM, first compound 0.0316 µM
[14] = second compound 0.1 µM, first compound 0.1 µM
[15] = second compound 0.1 µM, first compound 0.316 µM
[16] = second compound 0.1 µM, first compound 1 µM
[17] = second compound 0.1 µM, first compound 3.16 µM
[18] = second compound 0.1 µM, first compound 10 µM
[19] = second compound 0.316 µM, first compound 0.0316 µM
[20] = second compound 0.316 µM, first compound 0.1 µM
[21] = second compound 0.316 µM, first compound 0.316 µM
[22] = second compound 0.316 µM, first compound 1 µM
[23] = second compound 0.316 µM, first compound 3.16 µM
[24] = second compound 0.316 µM, first compound 10 µM
[25] = second compound 1 µM, first compound 0.0316 µM
[26] = second compound 1 µM, first compound 0.1 µM
[27] = second compound 1 µM, first compound 0.316 µM
[28] = second compound 1 µM, first compound 1 µM
[29] = second compound 1 µM, first compound 3.16 µM
[30] = second compound 1 µM, first compound 10 µM
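Further: spheroids exposed to compounds for 7 days before readout.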
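Wherever viability, T/C is given: CTG3D luminescence normalised so that 100% = DMSO vehicle control.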

Compound | pIC50 (second compound 0.01 µM) | pIC50 (second compound 0.0316 µM) | pIC50 (second compound 0.1 µM) | pIC50 (second compound 0.316 µM) | pIC50 (second compound 1 µM) | viability, T/C [1] | viability, T/C [2] | viability, T/C [3] | viability, T/C [4] | viability, T/C [5] | viability, T/C [6] | viability, T/C [7] | viability, T/C [8] | viability, T/C [9] | viability, T/C [13] | viability, T/C [14] | viability, T/C [19] | viability, T/C [20] | viability, T/C [25] | viability, T/C [26] | further results
C=CC(=O)N1CCN(c2nc(=O)n(-c3c(C)ccnc3C(C)C)c3nc(-c4c(O)cccc4F)c(F)cc23)C(C)C1 (stereo not given) + CCN1CCN(Cc2ccc(Nc3ncc(F)c(-c4cc(F)c5nc(C)n(C(C)C)c5c4)n3)nc2)CC1 | 5.23 | 5.65 | 5.77 | 5.73 | 5.65 | 95.2% | 96.3% | 102% | 82.3% | 53.7% | 46.9% | 64% | 84.3% | 70.9% | 67.2% | 115% | 61.5% | 67.9% | 62.6% | 62.4% | viability, T/C [10]: 66%; viability, T/C [11]: 43.3%; viability, T/C [12]: 31.7%; viability, T/C [15]: 74.6%; viability, T/C [16]: 56.1%; viability, T/C [17]: 46%; viability, T/C [18]: 27.2%; viability, T/C [21]: 72.5%; viability, T/C [22]: 55.7%; viability, T/C [23]: 43%; viability, T/C [24]: 16.9%; viability, T/C [27]: 72.2%; viability, T/C [28]: 59.9%; viability, T/C [29]: 45.4%; viability, T/C [30]: 28.4%
Cn1ncc(Cl)c1-c1cc(C(=O)NC(CN)Cc2cccc(F)c2)sc1Cl (stereo not given) + CCN1CCN(Cc2ccc(Nc3ncc(F)c(-c4cc(F)c5nc(C)n(C(C)C)c5c4)n3)nc2)CC1 | 6.75 | 7.02 | 6.80 | 6.77 | 6.40 | 97.8% | 58% | 34% | 32.3% | 8.93% | 0.28% | 90.9% | 38.1% | 30.7% | 86.3% | 56.7% | 63.4% | 72% | 64.3% | 75.1% | viability, T/C [10]: 28.1%; viability, T/C [11]: 8.85%; viability, T/C [12]: 0.59%; viability, T/C [15]: 34.1%; viability, T/C [16]: 29.2%; viability, T/C [17]: 6.19%; viability, T/C [18]: 0.25%; viability, T/C [21]: 26.7%; viability, T/C [22]: 25.8%; viability, T/C [23]: 4.76%; viability, T/C [24]: 0.45%; viability, T/C [27]: 53.1%; viability, T/C [28]: 27.4%; viability, T/C [29]: 3.89%; viability, T/C [30]: 0.61%
Cn1ncnc1[C@H]1c2n[nH]c(=O)c3cc(F)cc(c23)N[C@@H]1c1ccc(F)cc1 + CCN1CCN(Cc2ccc(Nc3ncc(F)c(-c4cc(F)c5nc(C)n(C(C)C)c5c4)n3)nc2)CC1 | < 7.00 | 7.14 | < 7.00 | 7.07 | 7.71 | 92.1% | 70.9% |  |  |  |  | 63.5% | 45% |  | 75.7% | 59.9% | 57.8% | 49.3% | 46.4% | 37.1% | viability, T/C (second compound 0.01 µM, first compound 0.000316 µM): 71.6%; viability, T/C (second compound 0.01 µM, first compound 0.001 µM): 94%; viability, T/C (second compound 0.01 µM, first compound 0.00316 µM): 91.8%; viability, T/C (second compound 0.01 µM, first compound 0.01 µM): 83.1%; viability, T/C (second compound 0.0316 µM, first compound 0.000316 µM): 74.7%; viability, T/C (second compound 0.0316 µM, first compound 0.001 µM): 81.8%; viability, T/C (second compound 0.0316 µM, first compound 0.00316 µM): 69.7%; viability, T/C (second compound 0.0316 µM, first compound 0.01 µM): 78.8%; viability, T/C (second compound 0.1 µM, first compound 0.000316 µM): 71.9%; viability, T/C (second compound 0.1 µM, first compound 0.001 µM): 66.3%; viability, T/C (second compound 0.1 µM, first compound 0.00316 µM): 71.3%; viability, T/C (second compound 0.1 µM, first compound 0.01 µM): 69.7%; viability, T/C (second compound 0.316 µM, first compound 0.000316 µM): 63.6%; viability, T/C (second compound 0.316 µM, first compound 0.001 µM): 69.4%; viability, T/C (second compound 0.316 µM, first compound 0.00316 µM): 72.8%; viability, T/C (second compound 0.316 µM, first compound 0.01 µM): 55%; viability, T/C (second compound 1 µM, first compound 0.000316 µM): 58.8%; viability, T/C (second compound 1 µM, first compound 0.001 µM): 84.5%; viability, T/C (second compound 1 µM, first compound 0.00316 µM): 57.7%; viability, T/C (second compound 1 µM, first compound 0.01 µM): 57.1%
